# Assays:
# Format in all cases: cell-based
# [1] = system: Acinetobacter baumannii SR24396; test: Minimum Inhibitory Concentration (MIC), agar plate incubation, Japan Society for Chemotherapy standard method; conditions: Acinetobacter baumannii SR24396, no enzyme, 1000 cfu/spot, sensitive disc medium; for MIC: read-out: Minimum Inhibitory Concentration (MIC)
# Experimental: (§1) The antimicrobial activity in vitro of the present compound (I) was determined.
# (§2) Measurement of Minimum Inhibitory Concentration (MIC, μg/ml) was conducted according to the standard method of the Japan Society for Chemotherapy and the amount of bacteria for inoculation was 1000 cfu/spot, and sensitive disc medium was used as the test medium, and conducted using agar plate incubation.
# (§3) In the tables, the unit of the values of inhibitory activity is μg/ml.
# [2] = system: Klebsiella pneumoniae ATCC 700603; test: as above; conditions: Klebsiella pneumoniae ATCC 700603, SHV-18, ESBL producer strain, 1000 cfu/spot, sensitive disc medium; for MIC: ATCC700603, read-out: Minimum Inhibitory Concentration (MIC)
# Experimental: as §1, §2, §3
# [3] = system: Pseudomonas aeruginosa SR24; test: as above; conditions: Pseudomonas aeruginosa SR24, no enzyme, ceftazidime sensitive strain, 1000 cfu/spot, sensitive disc medium; for MIC: read-out: Minimum Inhibitory Concentration (MIC)
# Experimental: as §1, §2, §3
# [4] = system: Pseudomonas aeruginosa SR27060; test: as above; conditions: Pseudomonas aeruginosa SR27060, IMP-1, MBL producer strain (carbapenem resistant strain), 1000 cfu/spot, sensitive disc medium; for MIC: read-out: Minimum Inhibitory Concentration (MIC)
# Experimental: as §1, §2, §3
# [5] = system: Stenotrophomonas maltophilia SR21970; test: Minimum Inhibitory Concentration (MIC), agar plate incubation, CLSI method; conditions: Stenotrophomonas maltophilia SR21970, L-1, MBL producer strain (carbapenem resistant strain), 10000 cfu/spot, Mueller-Hinton agar medium; for MIC: read-out: Minimum Inhibitory Concentration (MIC)
# Experimental: as §1
# Measurement of Minimum Inhibitory Concentration (MIC, μg/ml) was conducted according to the CLSI (Clinical and Laboratory Standards Institute) and the amount of bacteria for inoculation was 10000 cfu/spot, and Mueller-Hinton agar medium was used as the test medium, and conducted using agar plate incubation.
# as §3
Compound,Minimum Inhibitory Concentration (MIC) [1] [µg/mL],Minimum Inhibitory Concentration (MIC) [2] [µg/mL],Minimum Inhibitory Concentration (MIC) [3] [µg/mL],Minimum Inhibitory Concentration (MIC) [4] [µg/mL],Minimum Inhibitory Concentration (MIC) [5] [µg/mL],MIC [1] [µg/mL],MIC [2] [µg/mL],MIC [3] [µg/mL],MIC [4] [µg/mL],MIC [5] [µg/mL]
CC(C)(O/N=C(\C(=O)N[C@@H]1C(=O)N2C(C(=O)[O-])=C(C[N+]3(C)CCC4(CCN(C(=O)c5ccc(O)c(O)c5Cl)CC4)CC3)CS[C@H]12)c1csc(N)n1)C(=O)[O-].[Na+] [Compound I-42],0.25,0.25,0.063,1,1,–,–,–,–,–
Nc1nc(/C(=N/O[C@H](C(=O)[O-])c2ccccc2)C(=O)N[C@@H]2C(=O)N3C(C(=O)[O-])=C(C[N+]4(CCNC(=O)c5ccc(O)c(O)c5Cl)CCCC4)CS[C@H]23)ns1.[Na+] [Compound I-51],0.125,0.25,0.063,0.5,1,–,–,–,–,–
Nc1nc(/C(=N/O[C@H](C(=O)[O-])c2ccccc2)C(=O)N[C@@H]2C(=O)N3C(C(=O)O)=C(C[N+]45CCC[C@H]4CN(C(=O)c4ccc(O)c(O)c4Cl)CC5)CS[C@H]23)ns1 (stereo partly shown) [Compound I-52],–,–,–,–,–,0.125,0.5,0.125,2,1
Nc1nc(/C(=N/O[C@@H](CC(=O)[O-])C(=O)[O-])C(=O)N[C@@H]2C(=O)N3C(C(=O)[O-])=C(C[N+]4(CCNC(=O)c5ccc(O)c(O)c5Cl)CCCC4)CS[C@H]23)cs1.[Na+].[Na+] [Compound I-59],0.125,0.25,0.063,0.25,0.5,–,–,–,–,–
C[C@@H](O/N=C(\C(=O)N[C@@H]1C(=O)N2C(C(=O)O)=C(C[N+]34CCC[C@H]3CN(C(=O)c3ccc(O)c(O)c3Cl)CC4)CS[C@H]12)c1csc(N)n1)C(=O)[O-] (stereo partly shown) [Compound I-63],–,–,–,–,–,0.25,1,0.063,0.5,0.5
N#CC[C@H](O/N=C(\C(=O)N[C@@H]1C(=O)N2C(C(=O)O)=C(C[N@@+]34CC[C@@H](C3)N(C(=O)c3ccc(O)c(O)c3Cl)CC4)CS[C@H]12)c1csc(N)n1)C(=O)[O-] [II-1],–,–,–,–,–,0.063,0.25,0.125,0.5,2
CC(C)(O/N=C(\C(=O)N[C@@H]1C(=O)N2C(C(=O)[O-])=C(C[N+]3(C)[C@@H]4CC[C@H]3C[C@@H](NC(=O)c3ccc(O)c(O)c3Cl)C4)CS[C@H]12)c1csc(N)n1)C(=O)O (stereo partly shown) [II-2],–,–,–,–,–,0.25,0.5,0.125,1,2
C[N+]1(CC2=C(C(=O)[O-])N3C(=O)[C@@H](NC(=O)/C(=N\O[C@@H](CC(=O)O)C(=O)O)c4csc(N)n4)[C@H]3SC2)[C@@H]2CC[C@H]1C[C@@H](NC(=O)c1ccc(O)c(O)c1Cl)C2 (stereo partly shown) [II-3],–,–,–,–,–,0.125,0.5,0.125,0.5,0.5
C[N+]1(CC2=C(C(=O)[O-])N3C(=O)[C@@H](NC(=O)/C(=N\O[C@@H](CC(=O)[O-])C(=O)[O-])c4nc(N)sc4Cl)[C@H]3SC2)[C@@H]2CC[C@H]1C[C@@H](NC(=O)c1ccc(O)c(O)c1Cl)C2.[Na+].[Na+] (stereo partly shown) [II-5],0.125,0.5,0.125,0.25,4,–,–,–,–,–
C[N+]1(CC2=C(C(=O)[O-])N3C(=O)C(NC(=O)C(=NOC(CC(=O)[O-])C(=O)[O-])c4csc(N)n4)C3SC2)C2CCC1CN(C(=O)c1ccc(O)c(O)c1Cl)C2.[Na+].[Na+] (stereo not shown) [II-7],0.125,0.5,0.25,0.5,0.5,–,–,–,–,–
C[N+]1(CC2=C(C(=O)[O-])N3C(=O)[C@@H](NC(=O)/C(=N\O[C@@H](CC(=O)O)C(=O)O)c4csc(N)n4)[C@H]3SC2)[C@@H]2CC[C@H]1C[C@H](NC(=O)c1ccc(O)c(O)c1Cl)C2 (stereo partly shown) [II-9],–,–,–,–,–,0.063,1,0.25,0.5,0.25

# Reference: patent publication US9145425B2, “Cephem compound having catechol group” (SHIONOGI & CO., LTD., priority 2010, dated 2015)
